A value given as a limit tells only on which side of the number the result lay.

A word on the EC50: it is the concentration that produces a half-maximal response. The low end stands for a more potent agent, the high end for a less potent agent.

Experiment [1] has as its system Plasmodium falciparum. As to the kind of experiment: ST_JUDE: Plasmodium falciparum 3D7 EC50 (uM) as measured by SYBR green dye. The format is functional, organism-based.
For experiment [2], the system named is Plasmodium falciparum. As to the kind of experiment: ST_JUDE: Plasmodium falciparum K1 EC50 (uM) as measured by SYBR green dye. The format is functional, organism-based.

On to `CCc1ccc(C2C3=C(O)CC(C)(C)CC3=Nc3cc(OC)c(OC)c(OC)c32)cc1` (configuration not stated), for which the EC50 in experiment [1] was more than 15 µM; in experiment [2], 4.85 µM.
`CCCCCCCCc1c(C)c(C#N)c2nc3ccccc3n2c1-n1cnc2ccccc21`: the EC50 in experiment [1] and in experiment [2] was more than 15 µM in each case.
`O=C(Cc1ccccc1)NC(c1ccc([N+](=O)[O-])cc1)c1c(O)ccc2ccccc12` (configuration not stated): the EC50 in experiment [1] was 6.31 µM; in experiment [2] it was 5.77 µM.
Turning to `C=CCOc1ccc(C(=O)Nc2nonc2-c2ccc(OC)c(OC)c2)cc1`, the EC50 in experiment [1] came to 0.591 µM; in experiment [2] it was 0.689 µM.
In the case of `Oc1ccc(Br)cc1CN1CCN(Cc2cccc(Cl)c2)CC1`, the EC50 in experiment [1] was 1.79 µM; in experiment [2], 0.338 µM.
As for `COc1ccc(N2C(=O)/C(=C/Nc3ccc(F)cc3)c3ccccc3C2=O)cc1`, the EC50 in experiment [1] and in experiment [2] was more than 15 µM throughout.
For the compound `COc1ccc(C(=O)Nc2cccc(-c3nc4ccccc4s3)c2)cc1[N+](=O)[O-]`, the EC50 in experiment [1] and in experiment [2] was more than 15 µM throughout.
Consider `COC(=O)C1=CN(Cc2ccc(C)cc2)C=C(C(=O)OC)C1c1cc(OC)c(OC)c(OC)c1`, for which the EC50 in experiment [1] was determined as 4.49 µM; in experiment [2], 5.49 µM.
On to `Cc1ccccc1-n1c(N)c(C#N)c2nc3ccccc3nc21`, for which the EC50 in experiment [1] worked out at 1.64 µM; in experiment [2] it was 4.25 µM.
Consider `CCc1ccc(C2C(C(=O)OC)=C(N)OC3=C2C(=O)CC(C)(C)C3)cc1` (configuration not stated), for which the EC50 in experiment [1] and in experiment [2] was more than 15 µM in each case.
For `CCCCOC(=O)c1c(N)n(-c2ccccc2OC)c2nc3ccccc3nc12`, the EC50 is 3.83 µM in experiment [1] and more than 15 µM in experiment [2].
Taken in the same sequence, the figures for `CCN(CC)c1ccc(/C=C/C2=[N+](C)c3ccc(C(=O)OC)cc3C2(C)C)cc1` were 3.08 µM and more than 15 µM.
For `O=C(Nc1ccc(Cl)cc1)Nc1cc(OCC(F)(F)F)cc(OCC(F)(F)F)c1`, the EC50 was 1.36 µM in experiment [1] and 0.466 µM in experiment [2].
For the compound `CCN1CCN(Cc2c(O)ccc3c(=O)c(Oc4cc(C)cc(C)c4)c(C(F)(F)F)oc23)CC1`, the EC50 amounted to 0.514 µM in experiment [1] and 0.204 µM in experiment [2].
Taken in the same sequence, the figures for `O=C(NC(c1cccc([N+](=O)[O-])c1)c1cc(Cl)c2cccnc2c1O)c1cccnc1` (configuration not stated) were 4.65 µM and 2.73 µM.
With `CCCOC(=O)c1ccc(NC(=O)NC2CCCCC2)cc1`, the EC50 in experiment [1] and in experiment [2] was more than 15 µM throughout.
As to `COc1cc2c(cc1OC)C(COc1cccc(C(F)(F)F)c1)N(C(=O)C(C)(C)C)CC2` (configuration not stated), the EC50 is 6.77 µM in experiment [1] and 8.91 µM in experiment [2].
On to `COc1ccc(Nc2nc(NCc3ccccc3)c3ccccc3n2)cc1`, for which the figures for the EC50 in experiment [1] and in experiment [2] were 1.31 µM and 7.39 µM, respectively.
For `CCCCn1c(=N)n(CC(O)c2ccc(Cl)cc2)c2ccccc21` (configuration not stated), the EC50 in experiment [1] is 0.574 µM; in experiment [2], 0.544 µM.
As for `Cc1nc2ccccc2c(=O)n1-c1cccc(NC(=O)c2ccc(C(F)(F)F)cc2)c1`, the EC50 in experiment [1] and in experiment [2] was more than 15 µM throughout.
Regarding `Clc1cccc(/C=N/Nc2[nH]cnc3ncnc2-3)c1`, the figures for the EC50 in experiment [1] and in experiment [2] were 2.31 µM and 3.65 µM, respectively.
Taken in the same sequence, the figures for `COC(=O)c1cc(NS(=O)(=O)c2ccccc2[N+](=O)[O-])cc(C(=O)OC)c1` were more than 15 µM and more than 15 µM.
On to `CC/C(=C\c1sc2ccc(OC)cc2[n+]1CC)SC`, for which the EC50 in experiment [1] is 1.33 µM; in experiment [2] it was more than 15 µM.
Consider `CCOc1ccc(NC(=O)C2Sc3nnc(-c4ccccc4)n3NC2c2ccc(OC)cc2)cc1` (configuration not stated), for which the EC50 in experiment [1] and in experiment [2] was more than 15 µM in each case.
On to `C[n+]1ccccc1/C=C/c1ccc(Br)cc1`, for which the EC50 was 1.4 µM in experiment [1] and 1.46 µM in experiment [2].
`CC(=O)N1N=C2C3CCN(CC3)C2C1c1ccc(Br)cc1` (configuration not stated): the EC50 in experiment [1] and in experiment [2] was more than 15 µM throughout.
As for `O=C(N/N=C/c1nc2ccccc2[nH]1)c1cccc(Cl)c1`, the EC50 in experiment [1] was 1.65 µM; in experiment [2] it was more than 15 µM.
On to `Cc1ccc(NC(=O)Cn2c(C)c(C=O)c3ccccc32)cc1Cl`, for which the results for the EC50 in experiment [1] and in experiment [2] were more than 15 µM and 4.63 µM, respectively.
Taken in the same sequence, the figures for `CCCCOc1cccc(C(=O)Nc2ccc(CN3CCCCC3)cc2)c1` were more than 15 µM and more than 15 µM.
Taken in the same sequence, the figures for `COc1ccccc1[N+]1=C2CCCCN2C(O)(c2ccc(Cl)cc2)C1` (configuration not stated) were more than 15 µM and 7.71 µM.
For the compound `O=C(Nc1ccc(Cl)c(Cl)c1)c1ccc(-c2ccccc2)cc1`, the concentration giving a half-maximal response (EC50) in experiment [1] and in experiment [2] was more than 15 µM in each case.
For `CC(C)C(=O)N1CCN(c2ccc([N+](=O)[O-])c(NC3CC3)c2)CC1`, the results for the EC50 in experiment [1] and in experiment [2] were 4.46 µM and 6.77 µM, respectively.
Take `CCN(CC)CCCNC(=O)C1CCN(c2nc3c(C)cc(C)cc3s2)CC1`: the 50% effective concentration (EC50) in experiment [1] and in experiment [2] was more than 15 µM throughout.
With `COc1ccc(C2CC(=O)C3=C(C2)NC(=O)CC3c2ccc(O)cc2)cc1OC` (configuration not stated), the EC50 in experiment [1] was determined as 1.66 µM; in experiment [2], 0.977 µM.
Taken in the same sequence, the figures for `Cc1[nH]c2c(-c3ccc(Cl)cc3)cnn2c(=O)c1Cc1ccccc1` were 6.84 µM and 6.88 µM.
Take `Cc1cccc(NC(c2ccccc2C)c2ccc3ccc(C)nc3c2O)n1` (configuration not stated): the values for the EC50 in experiment [1] and in experiment [2] were 7.03 µM and 5.17 µM, respectively.
Taken in the same sequence, the figures for `COC(=O)c1c(S(=O)(=O)NCc2ccccc2)sc2c1CCN(Cc1ccc(OC)cc1)C2` were more than 15 µM and more than 15 µM.
`CCc1cc(Br)ccc1NC(=O)Nc1ccc([N+](=O)[O-])cc1`: the EC50 in experiment [1] and in experiment [2] was more than 15 µM throughout.
On to `CCOc1cc(C2C3=C(O)CC(c4ccc(OC)cc4)CC3=NC(C)=C2C(=O)OC)ccc1O` (configuration not stated), for which the results for the EC50 in experiment [1] and in experiment [2] were more than 15 µM and 5.36 µM, respectively.
With `COc1ccccc1/N=C1\C=C(NS(=O)(=O)c2ccc(Cl)cc2)c2ccccc2C1=O`, the EC50 in experiment [1] was determined as 0.268 µM; in experiment [2], 0.267 µM.
Taken in the same sequence, the figures for `CC(C)Cc1ccc(S(=O)(=O)N2c3ccccc3CC2C)cc1` (configuration not stated) were more than 15 µM and more than 15 µM.
For `CCCCN1COc2ccc3c(-c4ccccc4)cc(=O)oc3c2C1`, the EC50 in experiment [1] came to 1.92 µM; in experiment [2] it was 0.598 µM.
Turning to `C=CCN1C(=O)c2[nH]nc(-c3c(C)cc(C)cc3O)c2C1c1cccc(OC)c1` (configuration not stated), the EC50 in experiment [1] was 2.42 µM; in experiment [2], 1.42 µM.
On to `CC(C)C(=O)NC(c1ccc(Cl)cc1Cl)c1ccc2cccnc2c1O` (configuration not stated), for which the EC50 in experiment [1] turned out to be 3.65 µM; in experiment [2], 4.6 µM.
For the compound `COc1ccc(CCNC(=S)Nc2ccccc2SC)cc1OC`, the EC50 in experiment [1] was determined as 5.2 µM; in experiment [2], 4.3 µM.
As to `O=[N+]([O-])c1ccccc1C(Nc1ccccn1)c1cc(Cl)c2cccnc2c1O` (configuration not stated), the 50% effective concentration (EC50) is 8.67 µM in experiment [1] and more than 15 µM in experiment [2].
Regarding `CC[n+]1cccc2cc(OC)ccc21`, the EC50 in experiment [1] and in experiment [2] was more than 15 µM in each case.
`O=C(Nc1ccc(F)cc1)C1c2ccccc2C(=O)N(C2CCCC2)C1c1cccs1` (configuration not stated): the results for the EC50 in experiment [1] and in experiment [2] were 0.808 µM and 0.975 µM, respectively.
With `COc1ccc(C2CC(=O)C3=C(C2)NC(=O)CC3c2ccc(SC)cc2)cc1OC` (configuration not stated), the EC50 in experiment [1] is 3.65 µM; in experiment [2] it was 4.79 µM.
In the case of `CCN(C(=O)Nc1ccccc1OC)c1nc(-c2ccccc2)cs1`, the EC50 in experiment [1] and in experiment [2] was more than 15 µM each time.
Regarding `O=C(COc1ccccc1)NC(c1ccc(Cl)cc1)c1cc(Cl)c2cccnc2c1O` (configuration not stated), the EC50 was determined as 1.83 µM in experiment [1] and 1.68 µM in experiment [2].
With `COCCn1/c(=N/C(=O)CSCC(=O)Nc2cc(C)on2)sc2cc(OC)ccc21`, the EC50 in experiment [1] and in experiment [2] was more than 15 µM each time.
On to `CC(=O)OCCCCCCCCCCC[N+]1(C)CCCCC1`, for which the EC50 in experiment [1] is more than 15 µM; in experiment [2], 5.48 µM.
Taken in the same sequence, the figures for `CCOc1cccc2sc(N(Cc3cccnc3)C(=O)c3ccccc3[N+](=O)[O-])nc12` were 5.31 µM and more than 15 µM.
In the case of `CCc1c2cccn2cc[n+]1C`, the EC50 in experiment [1] was 7.07 µM; in experiment [2], 6.08 µM.
Turning to `CCOc1ccc(Nc2cc(C)nc(Nc3ccc(OCC)cc3)n2)cc1`, the EC50 in experiment [1] and in experiment [2] was more than 15 µM throughout.
Consider `Cc1ccc(-c2nc(C(=O)N(CCC#N)Cc3cccnc3)cs2)cc1F`, for which the EC50 in experiment [1] is 3.34 µM; in experiment [2], 4.68 µM.
For `CO/C(O)=C1\C(C)=NC2=C(C(=O)CC(c3ccc(OC)c(OC)c3)C2)C1c1cccc(C)c1` (configuration not stated), the figures for the EC50 in experiment [1] and in experiment [2] were 3.69 µM and 3.86 µM, respectively.
Consider `OCCNc1nc(Nc2ccc(Cl)cc2)nc2ccccc12`, for which the EC50 in experiment [1] is 1.02 µM; in experiment [2], 3.2 µM.
With `CCCCNC(=S)NCCc1c(C)[nH]c2ccccc12`, the EC50 in experiment [1] and in experiment [2] was more than 15 µM in each case.
As for `CCCN(CCC)Cc1c(O)ccc2c(=O)c(Oc3ccc(OC)cc3)c(C(F)(F)F)oc12`, the EC50 was more than 15 µM in experiment [1] and 2.95 µM in experiment [2].
Consider `Cc1ccnc(NC(c2cccc(Cl)c2Cl)c2ccc3cccnc3c2O)c1` (configuration not stated), for which the EC50 in experiment [1] was found to be 1.5 µM; in experiment [2] it was 1.67 µM.
As for `CCN1/C(=C/c2cccc[n+]2C)Sc2ccccc21`, the figures for the EC50 in experiment [1] and in experiment [2] were 4.47 µM and more than 15 µM, respectively.
For the compound `COc1ccc(CNCCc2ccc(F)cc2)cc1C`, the EC50 in experiment [1] and in experiment [2] was more than 15 µM each time.
Take `Cc1ccc2c(c1)c1c(n2CC(O)Cn2cnc(-c3ccccc3)c2-c2ccccc2)CCCC1` (configuration not stated): the results for the EC50 in experiment [1] and in experiment [2] were 2.02 µM and 1.08 µM, respectively.
As to `O=C(c1ccco1)N(Cc1cccnc1)c1nc2ccc(F)cc2s1`, the EC50 in experiment [1] and in experiment [2] was more than 15 µM each time.
In the case of `COc1ccc2nc(N(Cc3cccnc3)C(=O)Cc3ccccc3)sc2c1`, the EC50 in experiment [1] was determined as 5.44 µM; in experiment [2], 3.67 µM.
Taken in the same sequence, the figures for `CCN(CC)c1ccc(/C=N/NC(=O)c2cccc(NC(=O)c3ccc(C)cc3)c2)c(O)c1` were 5.46 µM and more than 15 µM.
In the case of `O=C(CSc1nnc(-c2ccncc2)o1)Nc1ccccc1C(F)(F)F`, the EC50 in experiment [1] and in experiment [2] was more than 15 µM each time.
Regarding `CO/C(O)=C1\C(C)=NC2=C(C(=O)CC(c3ccccc3OC)C2)C1c1ccc(OC)c(OC)c1` (configuration not stated), the EC50 in experiment [1] and in experiment [2] was more than 15 µM each time.
As to `COc1ccc(N(CC(=O)Nc2cccc(C(F)(F)F)c2)S(C)(=O)=O)cc1`, the EC50 in experiment [1] and in experiment [2] was more than 15 µM throughout.

Source of the values: ChEMBL document CHEMBL1154198, “Chemical genetics of Plasmodium falciparum” (Nature, 2010).
